EP4603105A1, “PHARMACEUTICAL COMPOSITION CONTAINING CYCLIC COMPOUND HAVING SELECTIVE KRAS INHIBITORY EFFECT AGAINST HRAS AND NRAS” (CHUGAI SEIYAKU KABUSHIKI KAISHA, priority 2022, dated 2024)
Read-outs that look alike come from different tables or passages of the source. Where a SMILES comes first, the peptide text is derived from it. Bridges are numbered along the chain shown (N, C = ends). [ ]: non-standard residue; d: D form. The star is where a group is joined. hPhe(3-Cl-4-CF3) = N[C@@H](CCc1ccc(C(F)(F)F)c(Cl)c1)C(=O)O; NPrPhe(4-CF3) = CCCN[C@@H](Cc1ccc(C(F)(F)F)cc1)C(=O)O; NPrPhe(4-Me) = CCCN[C@@H](Cc1ccc(C)cc1)C(=O)O; NMeGly(cPent) = CN[C@H](C(=O)O)C1CCCC1; Aze(3S-Me) = C[C@H]1CN[C@@H]1C(=O)O; NMeGly(cBu) = CN[C@H](C(=O)O)C1CCC1; Hyp = O=C(O)[C@@H]1C[C@@H](O)CN1; NMeD = CN[C@@H](CC(=O)O)C(=O)O; NMeL = CN[C@@H](CC(C)C)C(=O)O; Morpholide = C1CN(*)CCO1; NMeA = CN[C@@H](C)C(=O)O; Ac5c = NC1(C(=O)O)CCCC1; Aze = O=C(O)[C@@H]1CCN1; Ac4c = NC1(C(=O)O)CCC1; Sar = CNCC(=O)O

Experiments:
[1] = tested on: human lung cancer strain NCI-H441; assay type: cell-based
How it was run: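 Step one: dispense the test compound in serial DMSO dilutions. Step three: add the reagent and measure […].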

HRAS wild-type protein = HRAS wild-type protein (Homo sapiens, UniProt P01112); assay: Binding to HRAS by surface plasmon resonance (SPR), KD and KD ratio to KRAS
How it was run: (§1)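 Captured GDP-RAS (~100–300 RU) was exposed to increasing compound concentrations, 75 s per step, in running buffer with 10 µM GDP, 10 mM MgCl2 and 4% DMSO at pH 7.4.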

[2] = biological target: GDP-bound NRAS wild-type protein (Homo sapiens, UniProt P01111); assay: Binding to NRAS by surface plasmon resonance (SPR), KD and KD ratio to KRAS
How it was run: as §1

[3] = ratio of the KD value with respect to HRAS wild-type protein to the KD value with respect to KRAS
[4] = ratio of the KD value with respect to GDP-bound NRAS wild-type protein to the KD value with respect to KRAS
[5] = ratio of KD for HRAS wild-type protein to KD for KRAS
[6] = ratio of KD for GDP-bound NRAS wild-type protein to KD for KRAS
[7] = NCI-H441 cells, 4 days, CellTiter-Glo, read-out: NCl-H441 IC50

Chain of GDP-bound NRAS wild-type protein (P01111 whole entry): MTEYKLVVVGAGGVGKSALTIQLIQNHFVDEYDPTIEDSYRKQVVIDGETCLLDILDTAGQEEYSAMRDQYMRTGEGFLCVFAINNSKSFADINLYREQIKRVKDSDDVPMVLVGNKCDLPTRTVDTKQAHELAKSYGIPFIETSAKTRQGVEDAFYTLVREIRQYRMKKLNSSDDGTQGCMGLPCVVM
Chain of HRAS wild-type protein (P01112 whole entry): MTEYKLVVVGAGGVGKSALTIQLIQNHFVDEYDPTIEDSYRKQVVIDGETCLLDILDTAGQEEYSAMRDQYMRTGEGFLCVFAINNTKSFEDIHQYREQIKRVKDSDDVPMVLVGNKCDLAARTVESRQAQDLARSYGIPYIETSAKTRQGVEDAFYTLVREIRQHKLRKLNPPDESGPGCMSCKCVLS

Row | Structure (SMILES) | IC50 [1] [nM] | HRAS /KRAS (HRAS wild-type protein; [3]) | NRAS /KRAS [2, 4] | HRAS /KRAS (HRAS wild-type protein; [5]) | NRAS /KRAS [2, 6] | IC50 [1, 7] [nM]
1 | CC[C@H](C)[C@@H]1NC(=O)[C@H](CC(C)C)N(C)C(=O)C[C@@H](C(=O)N2CCOCC2)N(C)C(=O)[C@H](C2CCCC2)N(C)C(=O)C2(CCCC2)NC(=O)[C@@H]2CCCN2C(=O)[C@H](CCc2ccc(C(F)(F)F)c(Cl)c2)NC(=O)CN(C)C(=O)[C@H](Cc2ccc(Cl)cc2)N2C/C=C\CC[C@@H](C2=O)N(C)C(=O)CN(C)C1=O [PP0608] | 252 | B (a compound having 3 or more and less than 10 is denoted as B) | C (A compound having a KD ratio of 0.1 or more and less than 3 is denoted as C) | – | – | –
2 | CCCN1C(=O)[C@@H]2CCN2C(=O)[C@H](C)N(C)C(=O)[C@H]([C@@H](C)CC)NC(=O)[C@H](C2CCC2)N(C)C(=O)C[C@@H](C(=O)N2CCOCC2)N(C)C(=O)[C@H](C2CCCC2)N(C)C(=O)C2(CCCC2)NC(=O)[C@@H]2CCCN2C(=O)[C@H](CCc2ccc(C(F)(F)F)c(Cl)c2)NC(=O)CN(C)C(=O)[C@@H]1Cc1ccc(C(F)(F)F)cc1 [PP0192] ([NMeGly(cBu)]I[NMeA][Aze][NPrPhe(4-CF3)][Sar][hPhe(3-Cl-4-CF3)]P[Ac5c][NMeGly(cPent)][NMeD]-Morpholide; lactam N-11) | 2.6 | – | – | B (a compound having 3 or more and less than 10 is denoted as B) | C (A compound having a KD ratio of 0.1 or more and less than 3 is denoted as C) | –
3 | CCC[C@H]1C(=O)N[C@@H]([C@@H](C)CC)C(=O)N(C2CC2)CC(=O)N(C)[C@H]2C/C=C\CCN(C2=O)[C@@H](Cc2ccc(C)cc2)C(=O)N(C)CC(=O)N[C@@H](CCc2ccc(C(F)(F)F)c(OC)c2)C(=O)N2C[C@H](OCC)C[C@H]2C(=O)N(C)C2(CCC2)C(=O)N(C)[C@@H](C2CCCC2)C(=O)N(C)[C@H](C(=O)N2CCCC2)CC(=O)N1C [PP3098] | 4.7 | – | – | A (a compound having 10 or more and less than 20 is denoted as A) | A (a compound having 10 or more and less than 20 is denoted as A) | –
4 | CCO[C@@H]1C[C@H]2C(=O)NC3(CCC3)C(=O)N(C)[C@@H](C3CCCC3)C(=O)N(C)[C@H](C(=O)N(C)C)CC(=O)N(C)[C@H]3CCCCCCc4ccc(cc4)C[C@@H](C(=O)N(C)CC(=O)N[C@@H](CCc4ccc(C(F)(F)F)c(OC)c4)C(=O)N2C1)N1CC/C=C\C[C@@H](C1=O)N(C)C(=O)CN(C)C(=O)[C@H]([C@@H](C)CC)NC3=O [PP2264] | 13.1 | A (a compound having 10 or more and less than 20 is denoted as A) | AA (a compound having 20 or more is denoted as AA) | – | – | –
5 | C#CC[C@H]1C(=O)N[C@@H]([C@@H](C)CC)C(=O)N(C)CC(=O)N(C)[C@H]2C/C=C\CCN(C2=O)[C@@H](Cc2ccc(C(F)(F)F)cc2)C(=O)N(C)CC(=O)N[C@@H](CCc2cc(F)c(C(F)(F)F)c(F)c2)C(=O)N2CC3(CC3)C[C@H]2C(=O)NC2(CC(C)(C)C2)C(=O)N(C)[C@@H](C2CCCC2)C(=O)N(C)[C@H](C(=O)N(C)C)CC(=O)N1C [PP2976] | 8.7 | – | – | B (a compound having 3 or more and less than 10 is denoted as B) | A (a compound having 10 or more and less than 20 is denoted as A) | –
6 | CCCC[C@H]1C(=O)N[C@@H]([C@@H](C)CC)C(=O)N(C)CC(=O)N(C)[C@H]2C/C=C\CCN(C2=O)[C@@H](Cc2ccc(C)cc2)C(=O)N(C)CC(=O)N[C@@H](CCc2cc(F)c(C(F)(F)F)c(F)c2)C(=O)N2C[C@H](OCC)C[C@H]2C(=O)NC2(CCC2)C(=O)N(C)[C@@H](C2CCCC2)C(=O)N(C)[C@H](C(=O)N(C)C)CC(=O)N1C [PP2798] | 8.5 | – | – | A (a compound having 10 or more and less than 20 is denoted as A) | A (a compound having 10 or more and less than 20 is denoted as A) | –
7 | CCCN1C(=O)[C@@H]2[C@@H](C)CN2C(=O)[C@H](C)N(C)C(=O)[C@H]([C@@H](C)CC)NC(=O)[C@H](CC(C)C)N(C)C(=O)C[C@@H](C(=O)N2CCOCC2)N(C)C(=O)[C@H](C2CCCC2)N(C)C(=O)C2(CCCC2)NC(=O)[C@@H]2CCCN2C(=O)[C@H](CCc2ccc(C(F)(F)F)c(Cl)c2)NC(=O)CN(C)C(=O)[C@@H]1Cc1ccc(C)cc1 [PP0138] ([NMeL]I[NMeA][Aze(3S-Me)][NPrPhe(4-Me)][Sar][hPhe(3-Cl-4-CF3)]P[Ac5c][NMeGly(cPent)][NMeD]-Morpholide; lactam N-11) | 20.6 | – | – | C (A compound having a KD ratio of 0.1 or more and less than 3 is denoted as C) | C (A compound having a KD ratio of 0.1 or more and less than 3 is denoted as C) | –
8 | CCCN1C(=O)CN(C)C(=O)CN(C)C(=O)[C@H]([C@@H](C)CC)NC(=O)[C@H](CC(C)C)N(C)C(=O)C[C@@H](C(=O)N(C)C)N(C)C(=O)[C@H](C2CCCC2)N(C)C(=O)C2(CCC2)NC(=O)[C@@H]2CCCN2C(=O)[C@H](CCc2ccc(C(F)(F)F)c(Cl)c2)NC(=O)CN(C)C(=O)[C@@H]1Cc1ccc(C(F)(F)F)cc1 [PP0412] ([NMeL]I[Sar][Sar][NPrPhe(4-CF3)][Sar][hPhe(3-Cl-4-CF3)]P[Ac4c][NMeGly(cPent)][NMeD]-NMe2; lactam N-11) | 1.8 | C (A compound having a KD ratio of 0.1 or more and less than 3 is denoted as C) | B (a compound having 3 or more and less than 10 is denoted as B) | – | – | –
9 | CCCN1C(=O)[C@@H]2CCN2C(=O)CN(C)C(=O)[C@H]([C@@H](C)CC)NC(=O)[C@H](CC(C)C)N(C)C(=O)C[C@@H](C(=O)N(C)C)N(C)C(=O)[C@H](C2CCCC2)N(C)C(=O)C2(CCC2)NC(=O)[C@@H]2C[C@@H](OCC)CN2C(=O)[C@H](CCc2ccc(C(F)(F)F)c(Cl)c2)NC(=O)CN(C)C(=O)[C@@H]1Cc1ccc(C(F)(F)F)cc1 [PP0445] ([NMeL]I[Sar][Aze][NPrPhe(4-CF3)][Sar][hPhe(3-Cl-4-CF3)][Hyp](Et)[Ac4c][NMeGly(cPent)][NMeD]-NMe2; lactam N-11) | 1.7 | C (A compound having a KD ratio of 0.1 or more and less than 3 is denoted as C) | C (A compound having a KD ratio of 0.1 or more and less than 3 is denoted as C) | – | – | –
10 | CCO[C@@H]1C[C@H]2C(=O)NC3(CC(C)(C)C3)C(=O)N(C)[C@@H](C3CCCC3)C(=O)N(C)[C@H](C(=O)N(C)C)CC(=O)N(C)[C@@H](CC(C)C)C(=O)N[C@@H]([C@@H](C)CC)C(=O)N(C)CC(=O)N(C)[C@H]3C/C=C\CCN(C3=O)[C@@H](Cc3ccc(OC)cc3)C(=O)N(C)CC(=O)N[C@@H](CCc3ccc(C(F)(F)F)c(OC)c3)C(=O)N2C1 [PP2693] | – | – | – | B (a compound having 3 or more and less than 10 is denoted as B) | A (a compound having 10 or more and less than 20 is denoted as A) | 10.4
11 | CCO[C@@H]1C[C@H]2C(=O)NC3(CCCC3)C(=O)N(C)[C@@H](C3CCCC3)C(=O)N(C)[C@H](C(=O)N(C)C)CC(=O)N(C)[C@@H](C)C(=O)N[C@@H]([C@@H](C)CC)C(=O)N(C)CC(=O)N(C)[C@H]3CCCCN(C3=O)[C@@H](Cc3ccc(C(F)(F)F)cc3)C(=O)N(C)CC(=O)N[C@@H](CCc3cc(F)c(C(F)(F)F)c(F)c3)C(=O)N2C1 [PP0586] | 5.3 | B (a compound having 3 or more and less than 10 is denoted as B) | C (A compound having a KD ratio of 0.1 or more and less than 3 is denoted as C) | – | – | –
12 | CC[C@H](C)[C@@H]1NC(=O)[C@@H]2CCCc3ccc(cc3)C[C@@H](C(=O)N(C)CC(=O)N[C@@H](CCc3ccc(C(F)(F)F)c(OC)c3)C(=O)N3C[C@H](OC4CCC4)C[C@H]3C(=O)NC3(CC(C)(C)C3)C(=O)N(C)[C@@H](C3CCCC3)C(=O)N(C)[C@H](C(=O)N(C)CC)CC(=O)N2C)N2CC/C=C\C[C@@H](C2=O)N(C)C(=O)CN(C)C1=O [PP3085] | 6.3 | – | – | B (a compound having 3 or more and less than 10 is denoted as B) | A (a compound having 10 or more and less than 20 is denoted as A) | –
13 | CCO[C@@H]1C[C@H]2C(=O)NC3(CCCC3)C(=O)N(C)[C@@H](C3CCCC3)C(=O)N(C)[C@H](C(=O)N(C)C)CC(=O)N(C)[C@@H](CC(C)C)C(=O)N[C@@H]([C@@H](C)CC)C(=O)N(C)CC(=O)N(C)[C@H]3C/C=C\CCN(C3=O)[C@@H](Cc3ccc(C(F)(F)F)cc3)C(=O)N(C)CC(=O)N[C@@H](CCc3ccc(Cl)c(Cl)c3)C(=O)N2C1 [PP2837] | 12.8 | – | – | A (a compound having 10 or more and less than 20 is denoted as A) | AA (a compound having 20 or more is denoted as AA) | –
14 | CCO[C@@H]1C[C@H]2C(=O)NC3(CCC3)C(=O)N(C)[C@@H](C3CCCC3)C(=O)N(C)[C@H](C(=O)N(C)C)CC(=O)N(C)[C@@H](Cc3cccnc3)C(=O)N[C@@H]([C@@H](C)CC)C(=O)N(C)CC(=O)N(C)[C@H]3CCCCN(C3=O)[C@@H](Cc3ccc(C(F)(F)F)cc3)C(=O)N(C)CC(=O)N[C@@H](CCc3cc(F)c(C(F)(F)F)c(F)c3)C(=O)N2C1 [PP0703] | 26.7 | B (a compound having 3 or more and less than 10 is denoted as B) | C (A compound having a KD ratio of 0.1 or more and less than 3 is denoted as C) | – | – | –
15 | CCC[C@H]1C(=O)N[C@@H]([C@@H](C)CC)C(=O)N(C2CC2)CC(=O)N(C)[C@H]2C/C=C\CCN(C2=O)[C@@H](Cc2ccc(C)cc2)C(=O)N(C)CC(=O)N[C@@H](CCc2ccc(C3CC3)c(F)c2)C(=O)N2C[C@H](OCC)C[C@H]2C(=O)NC2(CC(C)(C)C2)C(=O)N(C)[C@@H](C2CCCC2)C(=O)N(C)[C@H](C(=O)N(C)C)CC(=O)N1C [PP2884] | – | – | – | A (a compound having 10 or more and less than 20 is denoted as A) | A (a compound having 10 or more and less than 20 is denoted as A) | 35.9
